We go through 8 compounds from ChEMBL document CHEMBL1201862, “PubChem BioAssay data set” (2004).

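Growth conditions: 96-well plates. Treatment: test compound, 48 hours, 5 concentrations. Analysis: linear interpolation between bracketing concentrations; unreached endpoints set to highest concentration. Here, GI50 denotes the concentration required for 50% inhibition of growth.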 Calls of active or inactive are those of the source. Cut-off read from the data, not from the text of the source: active = GI50 up to about 1.1 µM and inactive = higher.

Holding throughout (assay): inhibition of tumour cell growth, NCI panel, 48 h
Assay [1] deals with BT-549.
The test system of assay [2] is MOLT-4.
The test system of assay [3] is OVCAR-4.
The subject of assay [4] is SF-295.
Assay [5] relates to UACC-62.
For assay [6], the system named is T47D.
The subject of assay [7] is MCF7.
Assay [8] relates to HT-29.
Assay [9] has as its system IGROV-1.
Assay [10] has as its system SN12C.
For assay [11], the system named is COLO 205.
Assay [12] relates to HOP-62.
The test system of assay [13] is MDA-MB-435.
The subject of assay [14] is RPMI-8226.
Assay [15] concerns SK-OV-3.
In assay [16] the test system is SK-MEL-5.
Assay [17] deals with NCI/ADR-RES.
Assay [18] concerns KM12.
For assay [19], the system named is NCI-H226.

On to `Cc1ccc(/N=N/C(=N\c2ccc(Cl)cc2)c2ccc(N(CCC#N)CCC#N)cc2)cc1`, for which the GI50 in assay [1] is 16.7 µM (inactive); in [2], > 100 µM (inactive); in [3] it was 51.4 µM (inactive); in [4] it was 3.98 µM (inactive); in [5], 11.8 µM (inactive); in assay [6], 12.5 µM (inactive). For the same compound, the GI50 was 21.6 µM (inactive) in assay [7]; 71.4 µM (inactive) in assay [8]; 30.3 µM (inactive) in assay [9]; 40.9 µM (inactive) in assay [10]; 17.4 µM (inactive) in [11]; 58.3 µM (inactive) in assay [12]. For the same compound, the GI50 in [13] is 19.1 µM (inactive); in assay [14], > 100 µM (inactive); in assay [15] it was > 100 µM (inactive); in [16], 2.63 µM (inactive); in [17], 57.8 µM (inactive); in assay [18] it was 19.1 µM (inactive). The GI50 in assay [19] was > 100 µM (inactive).

For `COc1ccc(C2=Nn3c(nc4sc(C)c(C)c4c3=O)SC2)cc1`, the GI50 in assay [1], in assay [2], in assay [3], in [4], in [5] and in assay [6] was > 100 µM (inactive) each time. The GI50 in assay [7], in assay [8], in assay [9], in assay [10], in assay [11] and in [12] was > 100 µM (inactive) throughout. Further, the GI50 in [13], in [14], in assay [15], in assay [16], in [17] and in [18] was > 100 µM (inactive) each time. Moreover, the GI50 in assay [19] was > 100 µM (inactive).

Consider `COc1cc(S(=O)(=O)Nc2ccc(-c3csc(/N=C\c4ccccc4)n3)cc2)ccc1Cl`, for which the GI50 in assay [1] is 41.4 µM (inactive); in assay [2] it was 12.7 µM (inactive); in assay [3] it was 79.4 µM (inactive); in [4] it was 76.9 µM (inactive); in [5] it was 29.9 µM (inactive); in [6], 35.9 µM (inactive). Further, the GI50 in [7] was 20.5 µM (inactive); in assay [8], 44.2 µM (inactive); in [9], > 100 µM (inactive); in [10], > 100 µM (inactive); in assay [11] it was 36.4 µM (inactive); in assay [12], 41.4 µM (inactive). Besides, the GI50 was 34.1 µM (inactive) in assay [13]; 32 µM (inactive) in [14]; > 100 µM (inactive) in [15]; 52.7 µM (inactive) in assay [16]; > 100 µM (inactive) in assay [17]; 36.4 µM (inactive) in assay [18]. In [19], the GI50 was 75.2 µM (inactive).

With `CCOC(=O)/C=C(\C(=O)OCC)n1ccc(=O)n(Cc2cn(CCCCOC(C)=O)nn2)c1=O`, the GI50 in assay [1] is 10.4 µM (inactive); in [2] it was 2.4 µM (inactive); in [3], 19.4 µM (inactive); in [4], 35.9 µM (inactive); in [5], 16.1 µM (inactive); in assay [6], 5.36 µM (inactive). Also, the GI50 in [7] is 7.69 µM (inactive); in assay [8], 8.05 µM (inactive); in assay [9] it was 19.5 µM (inactive); in assay [10] it was 15.2 µM (inactive); in assay [11] it was 2.89 µM (inactive); in assay [12], 20.7 µM (inactive). The GI50 in [13] was 5 µM (inactive); in assay [14] it was 8.65 µM (inactive); in assay [15], 32.4 µM (inactive); in [16], 20.5 µM (inactive); in [17], 19.9 µM (inactive); in assay [18], 16 µM (inactive). In addition, the GI50 in [19] was 13.6 µM (inactive).

`c1ccc(/C(=N\Nc2nc3ccccc3[nH]2)c2ccccn2)cc1`: the GI50 in assay [1] is 1.19 µM (inactive); in assay [2] it was 0.012 µM (active); in [3], 0.208 µM (active); in [4] it was 1.69 µM (inactive); in assay [5], 0.82 µM (active); in [6] it was 0.136 µM (active). Further, the GI50 is 0.148 µM (active) in [7]; 0.0101 µM (active) in [8]; 0.262 µM (active) in assay [9]; 0.415 µM (active) in [10]; < 0.0207 µM (active) in [11]; 0.324 µM (active) in [12]. Moreover, the GI50 in [13] was 0.755 µM (active); in [14], 0.242 µM (active); in assay [15], 0.342 µM (active); in assay [16], 0.427 µM (active); in assay [17] it was 0.284 µM (active); in assay [18] it was 0.735 µM (active). Moreover, the GI50 in assay [19] was 0.256 µM (active).

For the compound `COC(COC(=O)N1CCN(C=O)CC1)C1=C(N2CC2)C(=O)C(C)=C(N2CC2)C1=O` (configuration not stated), the GI50 in assay [1] was 0.455 µM (active); in [2], 0.138 µM (active); in [3], 0.585 µM (active); in [4] it was 1.22 µM (inactive); in assay [5], 0.169 µM (active); in assay [6], 0.257 µM (active). Further, the GI50 in [7] was 0.0313 µM (active); in assay [8] it was 0.189 µM (active); in assay [9], 0.271 µM (active); in assay [10], 0.0336 µM (active); in assay [11], 0.272 µM (active); in assay [12], 0.191 µM (active). Also, the GI50 in assay [13] was 0.424 µM (active); in assay [14], 0.362 µM (active); in assay [15], 0.195 µM (active); in [16], 0.172 µM (active); in assay [17] it was 5.57 µM (inactive); in assay [18], 0.551 µM (active). The GI50 in assay [19] is 0.582 µM (active).

In the case of `Cc1ccc(/C=C2\CCC/C(=C\c3ccc(O)c(CN4CCCCC4)c3)C2=O)cc1`, the GI50 was 6.62 µM (inactive) in assay [1]; 3.6 µM (inactive) in [2]; 11.1 µM (inactive) in assay [3]; 10.7 µM (inactive) in [4]; 3.92 µM (inactive) in assay [5]; 13.4 µM (inactive) in assay [6]. For the same compound, the GI50 in [7] was 4.44 µM (inactive); in assay [8], 1.87 µM (inactive); in assay [9], 8.02 µM (inactive); in assay [10] it was 9.82 µM (inactive); in [11] it was 5.2 µM (inactive); in assay [12] it was 15.3 µM (inactive). Besides, the GI50 is 3.41 µM (inactive) in assay [13]; 5.08 µM (inactive) in [14]; 13.2 µM (inactive) in assay [15]; 6.1 µM (inactive) in [16]; 4.07 µM (inactive) in assay [17]; 3.01 µM (inactive) in assay [18]. Besides, the GI50 in assay [19] is 7.55 µM (inactive).

Take `COC(=O)c1csc([C@@H](OC(=O)[C@H](C)[C@H](CCCC(C)(Cl)Cl)OC(=O)c2csc([C@H](O)CO)n2)C(C)C)n1`: the GI50 in assay [1] is 17.1 µM (inactive); in [2] it was 16.3 µM (inactive); in [3], 10 µM (inactive); in [4], 15.7 µM (inactive); in assay [5], 11.6 µM (inactive); in [6], 20.7 µM (inactive). Also, the GI50 is 18 µM (inactive) in assay [7]; 17.6 µM (inactive) in [8]; 11.3 µM (inactive) in assay [9]; 1.99 µM (inactive) in [10]; 17.8 µM (inactive) in assay [11]; 18.4 µM (inactive) in assay [12]. Besides, the GI50 in assay [13] was 13.6 µM (inactive); in assay [14] it was 15.2 µM (inactive); in assay [15] it was 16.2 µM (inactive); in assay [16], 17.9 µM (inactive); in [17] it was 18.3 µM (inactive); in [18] it was 15.7 µM (inactive). Also, the GI50 in [19] is 19.2 µM (inactive).
